Reference: patent publication US20230393122A1 (priority 2022, published 2023)
Read-outs that look alike come from different tables or passages of the source.

How the values were obtained:
SARS-CoV-2 WT [1] = experiment: Viral load reduction assay in EPSC-derived eSTB cells (qRT-PCR of supernatant viral copies); type: cell-based; details: for IC50: read-out: IC50 for SARS-CoV-2 in eSTBs
SARS-CoV-2 [2] = details: Vero E6 cells; read-out: IC50 against SARS-CoV-2 in Vero E6 cells; cited from earlier work
MERS-CoV = type: cell-based; details: 48 h.p.i., efficiency comparable to that in Vero E6 cells
SARS-CoV-2 WT [3] = experiment: Viral load reduction assay in naïve-eSTB cells; type: cell-based; details: compared with EPSC-eSTBs
[4] = system: SARS-CoV-2 infected eSTBs; type: cell-based, human
SARS-CoV-2 [5] = details: cited from earlier work

Compound: CC(C)C[C@H](NC(=O)OCc1ccccc1)C(=O)N[C@@H](CC1CCNC1=O)C(O)S(=O)(=O)O (some centres unmarked) [GC376]
- IC50 (SARS-CoV-2 WT [1]): 31.2 ± 5.6 nM
- IC50 (SARS-CoV-2 [2]): 700 nM

Compound: CC(C)C[C@H](NC(=O)OCc1ccccc1)C(=O)N[C@@H](C[C@@H]1CCNC1=O)C(O)S(=O)(=O)[O-].[Na+] (some centres unmarked) [GC376]
- Viral copy in the supernatant, SARS-CoV-2 WT (FIG. 17B) (SARS-CoV-2 WT [1]; EPSC-derived eSTB cells): dose-dependent inhibition
- MERS-CoV replication in eSTBs (MERS-CoV): effectively block
- IC50 against SARS-CoV-2 in naïve-eSTBs (SARS-CoV-2 WT [3]): similarly low
- eSTB development and differentiation along PI-TB to PI-STB pseudotime trajectory [4]: partially rescued
- Survival of mice with a fatal SARS-CoV-2 infection (SARS-CoV-2 [5]): increases survival

Compound: CCC(CC)COC(=O)[C@H](C)N[P@](=O)(OC[C@H]1O[C@@](C#N)(c2ccc3c(N)ncnn23)[C@H](O)[C@@H]1O)Oc1ccccc1 [remdesivir]
- IC50 (SARS-CoV-2 WT [1]; Severe acute respiratory syndrome coronavirus 2, 48 h): 3.2 ± 0.1 nM
